Source: US6096743A, “1,2,3,4-tetrahydroquinoxalinedione derivative” (Yamanouchi Pharmaceuticals Co., Ltd., priority 1994, dated 2000)
≈ marks a conversion by molar mass, not a printed value. Like-named read-outs stand apart in the source and are kept apart here.

Legend:
[1] = test system: experimental animal models suffering from neuropathy, epilepsy or cerebral ischemia; conditions: in vivo; cited from earlier work
AMPA/kainate receptor = conditions: cited from earlier work
neuronal culture system = conditions: substance alone; cited from earlier work
AMPA receptor = assay: inhibitory activity against the binding of [3H]-AMPA (rat cerebral membrane); conditions: about 45 nM [3H]-AMPA, 45 minutes on ice water, non-specific: 10 μM quisqualic acid, read-out: Ki value, inhibition of [3H]-AMPA binding
Description: Inhibitory activity against the binding with [^3 H]-AMPA, kainic acid neurotoxicity and audiogenic seizure were confirmed as follows:
1) Measurement of inhibitory activity against the binding of [^3 H]-AMPA:
On ice water, 0.5 ml in total of a reaction liquid containing about 45 nM [^3 H]-AMPA [2-amino-3-(3-hydroxy-5-methyl-4-isoxazolyl)propionic acid], about […] of a sample of a rat cerebral membrane and a test compound was reacted for 45 minutes. The amount of [^3 H]-AMPA bound to the AMPA receptor was measured by the filtration method. A portion substituted by 10 μM quisqualic acid in the total bound amount was taken as the specific binding amount. Evaluation of the test compound was carried out by determining the binding inhibition ratio against the specific binding.

[2] = test system: hippocampal neuron (kainic acid neurotoxicity); assay: inhibitory activity against kainic acid neurotoxicity in primary culture of hippocampal neurons (LDH release); format: cell-based; conditions: 300 μM kainic acid, 24 hours, fetal rat hippocampal neuron, read-out: IC50, inhibition of neuronal death caused by kainic acid
Description: 2) Measurement of inhibitory activity against kainic acid neurotoxicity:
Inhibitory action of the invention compound against kainic acid neurotoxicity was investigated using the primary culture system of the hippocampal neuron of a fetal rat.
(1) Incubation conditions
The hippocamp was cut out from a brain of the 18 to 20-day-old fetal rat and was subjected to enzyme treatment with papain and DNase I to disperse the cells. The cells so obtained were floated on MEM containing 10% serum and then were inoculated on a 48-well plate treated in advance with poly-I-lysine in a concentration of 4×10^5 cell/cm^2. Twenty four hours later, the serum was replaced by a serum-free medium. The medium replacement was carried out twice a week. The cells which were cultivated for at least 6 days were provided for the following test.
(2) Inhibition against kainic acid neurotoxicity
Neurotoxicity was expressed by an activity of lactate dehydrogenase released in the culture medium by the cell death. As a control, neurons which were exposed to a serum-free medium containing 300 μM kainic acid for 24 hours were used. Each compound, together with 300 μM kainic acid, was allowed to act on the neuron for 24 hours and inhibitory action of each compound against neuronal death caused by kainic acid was evaluated.

[3] = test system: DBA/2 mouse (audiogenic seizure); assay: audiogenic seizure inhibitory action in DBA/2 mouse; format: in vivo; conditions: ip, 0.25 h, intraperitoneal, 15 minutes before stimulation by sound of 12 kHz and 120 dB, male 21 to 28-day-old mice, read-out: minimum effective dose (MED), suppression of audiogenic seizure
Description: 3) Measurement of audiogenic seizure inhibitory action in DBA/2 mouse
Ten male 21 to 28-day-old mice were exposed to auditory and stimulation by the sound of 12 kHz and 120 dB in a sound proof box for one minute or until these mice cause tonic seizure. The test compound was suspended in a 0.5% methylcellulose solution or dissolved in physiological saline and the resulting suspension or solution was intraperitoneally administered 15 minutes before the stimulation by the sound. The drug efficacy was evaluated by presence or absence of the appearance of seizure and the minimum effective dose (MED) was determined.

[4] = solubility in phosphate buffers of pH 5, 6, 7 and 8; format: physicochemical; conditions: aqueous buffer
Description: 4) Measurement of solubility
To a 0.1M aqueous solution of potassium dihydrogenphosphate, a 0.1M aqueous solution of […] was added, whereby buffers having pH of 5, 6, 7 and 8 were prepared, respectively.
Measurement of Solubility:
About 5 mg portions of the invention compound were weighed precisely in four glass test tubes and 0.1 ml phosphate buffers having pH 5, 6, 7 and 8 were added, respectively, followed by thorough shaking. The value obtained in accordance with the following equation was taken as the solubility. [formula]

[5] = test system: experimental animal models suffering from cerebral ischemia; conditions: in vivo; cited from earlier work
[6] = phosphate buffer pH 6, read-out: solubility, pH 6

NC(CCCP(=O)(O)O)C(=O)O (stereo not shown) [2-amino-5-phosphonovalerianic acid]
effect in experimental animal models of neuropathy, epilepsy or cerebral ischemia (in words) [1]: effective

NC(CCCCCP(=O)(O)O)C(=O)O (stereo not shown) [2-amino-7-phosphonoheptanic acid]
effect in experimental animal models of neuropathy, epilepsy or cerebral ischemia (in words) [1]: effective

Cc1onc(O)c1CC(N)C(=O)O (stereo not shown) [AMPA, 2-amino-3-(3-hydroxy-5-methyl-4-isoxazolyl)propionic acid]
affinity with the AMPA/kainate receptor (in words) (AMPA/kainate receptor): high affinity | neuronal cell death in neuronal culture (in words) (neuronal culture system): weak

O=C(O)Cn1c(=O)c(=O)[nH]c2cc([N+](=O)[O-])c(-n3ccnc3)cc21 [Example 1, 2-[2,3-dioxo-7-(1H-imidazol-1-yl)-6-nitro-1,2,3,4-tetrahydroquinoxalin-1-yl]acetic acid]
Ki (AMPA receptor): 730 nM | IC50 [2]: 800 nM | minimal effective dose [3]: 3 mg/kg | solubility ([4]; phosphate buffer pH 5, read-out: solubility, pH 5): 2490 µg/mL (≈ 7.51 mM) | solubility [4, 6]: 2620 µg/mL (≈ 7.91 mM) | solubility ([4]; phosphate buffer pH 7, read-out: solubility, pH 7): 3640 µg/mL (≈ 11 mM) | solubility ([4]; phosphate buffer pH 8, read-out: solubility, pH 8): 5130 µg/mL (≈ 15.5 mM)

O=C(O)Cn1c(=O)c(=O)[nH]c2cc(C(F)(F)F)c(-n3ccnc3)cc21 [Example 9, 2-[2,3-dioxo-7-(1H-imidazole-1-yl)-6-trifluoromethyl-1,2,3,4-tetrahydroquinoxalin-1-yl]acetic acid]
Ki (AMPA receptor): 93 nM | IC50 [2]: 960 nM | minimal effective dose [3]: 10 mg/kg | solubility [4, 6]: 4100 µg/mL (≈ 11.6 mM)

O=C(O)Cn1c(=O)c(=O)[nH]c2cc(OCc3ccccc3)c(-n3ccnc3)cc21 [Example 19, 2-[6-benzyloxy-2,3-dioxo-7-(1H-imidazol-1-yl)-1,2,3,4-tetrahydroquinoxalin-1-yl]acetic acid]
Ki (AMPA receptor): 70 nM | IC50 [2]: 480 nM | minimal effective dose [3]: 1 mg/kg

NC1CCN(O)C1=O (stereo not shown) [HA-966]
effect in experimental animal models of cerebral ischemia (in words) [5]: effective

NS(=O)(=O)c1cccc2c1c([N+](=O)[O-])cc1[nH]c(=O)c(=O)[nH]c12 [NBQX]
effect in experimental animal models of cerebral ischemia (in words) [5]: effective

C=C(C)[C@H]1CN[C@H](C(=O)O)[C@H]1CC(=O)O [kainic acid]
affinity with the AMPA/kainate receptor (in words) (AMPA/kainate receptor): low affinity | neuronal cell death in neuronal culture (in words) (neuronal culture system): causes marked neuronal cell death
